pIC50: −log10 of the molar value.
Target: T1, native human TRPA1 receptors (Homo sapiens, UniProt O75762)
T1 construct: stably expressing native human TRPA1 receptors were used; endogenous in cells; host or cells: A549 human lung adenocarcinoma epithelial cell line
Assay: PF-4840154 (1 μM)-induced Ca2+ fluorescence measurements in A549 cell line
Type: cell-based
Conditions: for inhibition at 10 µM: 10 μM compound against 1 μM PF-4840154, A549 cells; for pIC50: against PF-4840154 (1 μM)-evoked [Ca2+]i mobilization
Experimental: PF-4840154 (1 μM)-Induced Ca^2+ Fluorescence Measurements in A549 Cell Line
Human lung adenocarcinoma epithelial cell line (A549) stably expressing native human TRPA1 receptors were used. The cells were cultured in medium consisting of Eagle's minimal essential medium (EMEM) supplemented with 10% fetal bovine serum (FBS), penicillin (100 IU/ml), streptomycin ([…]), L-glutamine (2 mM), sodium bicarbonate (2.5 g/L) and HEPES (24 mM). Cells were kept at 37° C. in 5% CO2/humidified air. For the experiments the cells were seeded at a density of 16,000 cells/well into 96-well black, clear-bottom plates. After 24 hours incubation the cells were loaded with medium supplemented with 2.5 mM probenecid, 3 μM of the calcium sensitive fluorescent dye Fluo-4 AM and 0.01% pluronic acid, for 30 min at 37° C. Afterwards the loading solution was aspirated and 100 μl/well of assay buffer: Hank's Balanced Salt Solution (HBSS) supplemented with 2.5 mM probenecid and 500 μM Brilliant Black (Aldrich) was added. Stock solutions (100 mM) of ligands were made in Dimethyl Sulfoxide (DMSO) and stored at −20° C. Serial dilutions of ligands for experimental use were made in HBSS buffer. After placing both plates (cell culture and compound plate) into the FlexStation II (Molecular Device, Union City, Calif. 94587, US), fluorescence changes were measured. On-line additions were carried out in a volume of […]. To facilitate drug diffusion into the wells in antagonist type experiments, the studies were performed at 36.5° C. and three cycles of mixing (25 μl from each well moved up and down 3 times) were performed immediately after antagonist injection to the wells. All exemplified compounds were tested alone (to address residual agonistic activity) and against 1 μM of PF-4840154 to address inhibitory activity at the initial concentration of 10 μM. For selected examples the entire inhibitory concentration-response curves were constructed and the IC50 value calculated.
PF-4840154 (1 μM) increased [Ca^2+] in the vast majority (95%) of cultured cells which were thereby identified as TRPA1 expressing cells.

T1 sequence (O75762 whole entry): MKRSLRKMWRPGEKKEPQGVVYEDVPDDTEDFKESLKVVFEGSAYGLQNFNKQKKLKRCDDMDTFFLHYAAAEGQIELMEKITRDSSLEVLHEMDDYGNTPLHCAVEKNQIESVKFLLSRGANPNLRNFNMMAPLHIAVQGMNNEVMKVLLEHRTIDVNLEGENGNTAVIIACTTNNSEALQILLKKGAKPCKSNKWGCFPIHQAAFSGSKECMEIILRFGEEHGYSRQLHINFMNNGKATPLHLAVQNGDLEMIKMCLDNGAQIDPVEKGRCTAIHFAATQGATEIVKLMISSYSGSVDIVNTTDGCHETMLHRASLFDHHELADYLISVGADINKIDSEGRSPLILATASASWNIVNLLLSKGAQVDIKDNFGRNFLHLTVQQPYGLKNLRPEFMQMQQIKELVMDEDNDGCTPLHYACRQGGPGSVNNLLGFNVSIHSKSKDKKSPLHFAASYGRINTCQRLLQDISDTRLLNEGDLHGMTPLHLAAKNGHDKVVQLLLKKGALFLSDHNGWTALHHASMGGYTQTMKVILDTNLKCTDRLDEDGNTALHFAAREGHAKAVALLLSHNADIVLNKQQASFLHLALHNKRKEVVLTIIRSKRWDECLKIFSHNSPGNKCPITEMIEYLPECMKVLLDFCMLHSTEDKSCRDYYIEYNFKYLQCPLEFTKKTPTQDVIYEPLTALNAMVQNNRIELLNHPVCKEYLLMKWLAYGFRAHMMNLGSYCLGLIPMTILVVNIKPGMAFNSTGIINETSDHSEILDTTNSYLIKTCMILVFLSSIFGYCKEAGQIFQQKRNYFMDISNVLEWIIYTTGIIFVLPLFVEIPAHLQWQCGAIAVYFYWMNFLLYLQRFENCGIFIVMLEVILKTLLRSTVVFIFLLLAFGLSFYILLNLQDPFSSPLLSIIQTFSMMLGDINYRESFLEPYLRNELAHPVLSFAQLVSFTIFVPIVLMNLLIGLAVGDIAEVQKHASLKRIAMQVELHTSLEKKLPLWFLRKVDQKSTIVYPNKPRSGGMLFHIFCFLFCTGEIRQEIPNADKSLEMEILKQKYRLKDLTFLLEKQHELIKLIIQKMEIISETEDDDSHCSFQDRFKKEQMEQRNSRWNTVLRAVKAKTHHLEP

| SMILES | inhibition at 10 µM [%] | pIC50 (A549 cells) | IC50 (against PF-4840154 (1 μM), A549 cells, cells printed in μM) [µM] |
| --- | --- | --- | --- |
| CCN(C1(C(=O)NCc2cc(OC)nc(-c3ccc(C(F)(F)F)cc3)c2)CC1)S(=O)(=O)c1ccc(F)cc1 [Example 48, 1-[ethyl-(4-fluorophenyl)sulfonyl-amino]-N-[[2-methoxy-6-[4-(trifluoromethyl)phenyl]-4-pyridyl]methyl]cyclopropanecarboxamide] | 96 | 6.59 |  |
| CCN(C1(C(=O)NCc2cc(OC(C)C)nc(-c3ccc(C(F)(F)F)cc3)c2)CC1)S(=O)(=O)c1ccc(F)cc1 [Example 49, 1-[ethyl-(4-fluorophenyl)sulfonyl-amino]-N-[[2-isopropoxy-6-[4-(trifluoromethyl)phenyl]-4-pyridyl]methyl]cyclopropanecarboxamide] | 98 | 7.02 |  |
| CCOc1cc(CNC(=O)C2(N(CC)S(=O)(=O)c3ccc(F)cc3)CC2)cc(-c2ccc(C(F)(F)F)cc2)n1 [Example 52, N-[[2-ethoxy-6-[4-(trifluoromethyl)phenyl]-4-pyridyl]methyl]-1-[ethyl-(4-fluorophenyl)sulfonyl-amino]cyclopropanecarboxamide] | 99 | 7.06 |  |
| C=C(C(=O)NCc1cc[n+]([O-])c(-c2ccc(C(F)(F)F)cc2)c1)N(CC)S(=O)(=O)c1ccc(F)cc1 [Example 54, 2-[ethyl-(4-fluorophenyl)sulfonyl-amino]-N-[[1-oxido-2-[4-(trifluoromethyl)phenyl]pyridin-1-ium-4-yl]methyl]prop-2-enamide] | 47 |  | > 10 |
| C=C(C(=O)NCc1cccc(-c2ccc(OC(F)(F)F)cc2)c1)N(CC)S(=O)(=O)c1ccc(Cl)s1 [Example 55, 2-[(5-chloro-2-thienyl)sulfonyl-ethyl-amino]-N-[[3-[4-(trifluoromethoxy)phenyl]phenyl]methyl]prop-2-enamide] | 100 | 7.51 |  |
| C=C(C(=O)NCc1ccnc(-c2ccc(C(F)(F)F)cc2)c1)N(C)S(=O)(=O)c1ccc(F)cc1 [Example 56, 2-[(4-fluorophenyl)sulfonyl-methyl-amino]-N-[[2-[4-(trifluoromethyl)phenyl]-4-pyridyl]methyl]prop-2-enamide] | 100 | 6.56 |  |

The remaining lines, values ahead:

| inhibition at 10 µM [%] | pIC50 (A549 cells) | IC50 (against PF-4840154 (1 μM), A549 cells, cells printed in μM) [µM] | SMILES |
| --- | --- | --- | --- |
| 97 | 6.56 |  | CN(C1(C(=O)NCc2cccc(-c3ccc(OC(F)(F)F)cc3)c2)CC1)S(=O)(=O)c1ccc(F)cc1 [Example 57, 1-[(4-fluorophenyl)sulfonyl-methyl-amino]-N-[[3-[4-(trifluoromethoxy)phenyl]phenyl]methyl]cyclopropanecarboxamide] |
| 100 | 6.80 |  | CN(C1(C(=O)NCc2cccc(-c3ccc(C(F)(F)F)cc3)c2)CC1)S(=O)(=O)c1ccc(F)cc1 [Example 58, 1-[(4-fluorophenyl)sulfonyl-methyl-amino]-N-[[3-[4-(trifluoromethyl)phenyl]phenyl]methyl]cyclopropanecarboxamide] |
| 100 | 6.37 |  | CCN(C1(C(=O)NCc2cc(-c3ccc(C(F)(F)F)cc3)ccn2)CC1)S(=O)(=O)c1ccc(F)cc1 [Example 60, 1-[ethyl-(4-fluorophenyl)sulfonyl-amino]-N-[[4-[4-(trifluoromethyl)phenyl]-2-pyridyl]methyl]cyclopropanecarboxamide] |
| 95 | 6.11 |  | CCN(C1(C(=O)NCc2cc(-c3ccc(OC(F)(F)F)cc3)nc(N3CCCC3)c2)CC1)S(=O)(=O)c1ccc(F)cc1 [Example 61, 1-[ethyl-(4-fluorophenyl)sulfonyl-amino]-N-[[2-pyrrolidin-1-yl-6-[4-(trifluoromethoxy)phenyl]-4-pyridyl]methyl]cyclopropanecarboxamide] |
| 100 | 6.18 |  | CCN(C1(C(=O)NCc2cc(-c3ccc(C(F)(F)F)cc3)nc(N3CCOCC3)c2)CC1)S(=O)(=O)c1ccc(F)cc1 [Example 62, 1-[ethyl-(4-fluorophenyl)sulfonyl-amino]-N-[[2-morpholino-6-[4-(trifluoromethyl)phenyl]-4-pyridyl]methyl] cyclopropanecarboxamide] |

Source: patent publication US9409864B2, “Sulfonamide TRPA1 receptor antagonists” (ARIO PHARMA LIMITED, priority 2013, dated 2016)
